# Results as given in patent US10246448B2, “4-hydroxy-2-phenyl-1,3-thiazol-5-yl methanone derivatives as TRPM8 antagonists” (DOMPÉ FARMACEUTICI S.P.A., priority 2015, dated 2019).
# Test system: not listed separately
# Test: Metabolic stability in rat microsomes, Phase I assay
# Type: in vitro ADME
# Conditions: pH 7.4; rat liver microsomes 0.5 mg/ml, compound 1 μM, NADP cofactors mixture, 37° C.; read-out: Metabolic Stability (t1/2, min) Phase1
# Description: Compounds 1, 2, 8 and 9 in duplicate were dissolved in DMSO and pre-incubated, at the final concentration of 1 μM, for 10 min at 37° C. in potassium phosphate buffer 50 mM pH 7.4, 3 mM MgCl2, with rat liver microsomes (Xenotech) at the final concentration of 0.5 mg/ml.
# After the pre-incubation period, reactions were started by adding the cofactors mixture (NADP, Glc6P, Glc6P-DH in 2% Sodium bicarbonte); samples (50 μl) were taken at time 0, 10, 20, 30 and 60 min added to 150 μl of acetonitrile with Verapamil 0.02 μM as Internal Standard (IS) to stop the reaction. After centrifugation the supernatants were analysed by LC-MS/MS.
# A control sample without cofactors was added in order to check the stability of test compounds in the matrix after 60 min. 7-Ethoxycoumarin and propranolol were added as reference standards.
row,SMILES,half-life at 1 μM [min]
1,"O=C(c1sc(-c2cccc(F)c2)nc1O)N1CCOCC1 [Example 12, [2-(3-fluorophenyl)-4-hydroxy-1,3-thiazol-5-yl](morpholin-4-yl)methanone]",54
2,"O=C(c1sc(-c2ccccc2O)nc1O)N1CCOCC1 [Example 13, [4-hydroxy-2-(2-hydroxyphenyl)-1,3-thiazol-5-yl](morpholin-4-yl)methanone]",78
3,"O=C(c1sc(-c2cccc(F)c2)nc1O)N1CCCCC1 [Example 14, [2-(3-fluorophenyl)-4-hydroxy-1,3-thiazol-5-yl](piperidin-1-yl)methanone]",67
4,"O=C(c1sc(-c2cccc(F)c2)nc1O)C1CCCN1 (stereo not drawn) [Example 15, [2-(3-fluorophenyl)-4-hydroxy-1,3-thiazol-5-yl](pyrrolidin-2-yl)methanone]",65
5,"CN1CCCC1C(=O)c1sc(-c2cccc(F)c2)nc1O (stereo not drawn) [Example 16, [2-(3-fluorophenyl)-4-hydroxy-1,3-thiazol-5-yl](1-methylpyrrolidin-2-yl)methanone]",32
6,"O=C(c1ccc[nH]1)c1sc(-c2cccc(F)c2)nc1O [Example 17, [2-(3-fluorophenyl)-4-hydroxy-1,3-thiazol-5-yl](1H-pyrrol-2-yl)methanone]",90
7,"Cn1cccc1C(=O)c1sc(-c2cccc(F)c2)nc1O [Example 18, [2-(3-fluorophenyl)-4-hydroxy-1,3-thiazol-5-yl](1-methyl-1H-pyrrol-2-yl)methanone]",78
8,"O=C(c1ccco1)c1sc(-c2cccc(F)c2)nc1O [Example 19, [2-(3-fluorophenyl)-4-hydroxy-1,3-thiazol-5-yl](furan-2-yl)methanone]",42
9,"O=C(c1cccs1)c1sc(-c2cccc(F)c2)nc1O [Example 20, [2-(3-fluorophenyl)-4-hydroxy-1,3-thiazol-5-yl](thiophen-2-yl)methanone]",68
10,"O=C(c1sc(-c2cccc(F)c2)nc1O)n1cccc1 [Example 21, [2-(3-fluorophenyl)-4-hydroxy-1,3-thiazol-5-yl](1H-pyrrol-1-yl)methanone]",32
11,"O=C(c1ccccn1)c1sc(-c2cccc(F)c2)nc1O [Example 22, [2-(3-fluorophenyl)-4-hydroxy-1,3-thiazol-5-yl](pyridin-2-yl)methanone]",52
12,"O=C(c1cccnc1)c1sc(-c2cccc(F)c2)nc1O [Example 23, [2-(3-fluorophenyl)-4-hydroxy-1,3-thiazol-5-yl](pyridin-3-yl)methanone]",52

# Test system: not listed separately
# Test: Metabolic stability in rat microsomes, Phase II assay
# Type: in vitro ADME
# Conditions: pH 7.4; rat liver microsomes 0.5 mg/mL, Alamethicin activated, UDPGA, compound 1 μM, 37° C.; read-out: Metabolic Stability (t1/2, min) Phase2
# Description: Rat liver microsomes (0.5 mg/mL final conc.) were incubated in ice for 15 min in 50 mM potassium phosphate buffer pH 7.4, 3 mM MgCl2 and activated with Alamethicin 50 μg/mg microsomal protein. Samples were transferred at 37° C. and compounds 1, 2, 8 and 9, dissolved in DMSO, were added in duplicate at the final concentration of 1 μM. After 5 min, reaction is started by adding 25 μl of UDPGA (16.15 mg/ml in 0.2% Sodium Bicarbonate). Samples were taken at time 0, 10, 20, 30 and 60 min added to 150 μl of acetonitrile with Verapamil 0.02 uM as Internal Standard (IS) to stop the reaction. After centrifugation the supernatants were analysed by LC-MS/MS. 7-Hydroxycoumarin was added as reference standard.
row,SMILES,half-life at 1 μM [min]
1,"O=C(c1sc(-c2cccc(F)c2)nc1O)N1CCOCC1 [Example 12, [2-(3-fluorophenyl)-4-hydroxy-1,3-thiazol-5-yl](morpholin-4-yl)methanone]",32
2,"O=C(c1sc(-c2ccccc2O)nc1O)N1CCOCC1 [Example 13, [4-hydroxy-2-(2-hydroxyphenyl)-1,3-thiazol-5-yl](morpholin-4-yl)methanone]",36
3,"O=C(c1sc(-c2cccc(F)c2)nc1O)N1CCCCC1 [Example 14, [2-(3-fluorophenyl)-4-hydroxy-1,3-thiazol-5-yl](piperidin-1-yl)methanone]",65
4,"O=C(c1sc(-c2cccc(F)c2)nc1O)C1CCCN1 (stereo not drawn) [Example 15, [2-(3-fluorophenyl)-4-hydroxy-1,3-thiazol-5-yl](pyrrolidin-2-yl)methanone]",54
5,"CN1CCCC1C(=O)c1sc(-c2cccc(F)c2)nc1O (stereo not drawn) [Example 16, [2-(3-fluorophenyl)-4-hydroxy-1,3-thiazol-5-yl](1-methylpyrrolidin-2-yl)methanone]",34
6,"O=C(c1ccc[nH]1)c1sc(-c2cccc(F)c2)nc1O [Example 17, [2-(3-fluorophenyl)-4-hydroxy-1,3-thiazol-5-yl](1H-pyrrol-2-yl)methanone]",82
7,"Cn1cccc1C(=O)c1sc(-c2cccc(F)c2)nc1O [Example 18, [2-(3-fluorophenyl)-4-hydroxy-1,3-thiazol-5-yl](1-methyl-1H-pyrrol-2-yl)methanone]",55
8,"O=C(c1ccco1)c1sc(-c2cccc(F)c2)nc1O [Example 19, [2-(3-fluorophenyl)-4-hydroxy-1,3-thiazol-5-yl](furan-2-yl)methanone]",21
9,"O=C(c1cccs1)c1sc(-c2cccc(F)c2)nc1O [Example 20, [2-(3-fluorophenyl)-4-hydroxy-1,3-thiazol-5-yl](thiophen-2-yl)methanone]",59
10,"O=C(c1sc(-c2cccc(F)c2)nc1O)n1cccc1 [Example 21, [2-(3-fluorophenyl)-4-hydroxy-1,3-thiazol-5-yl](1H-pyrrol-1-yl)methanone]",35
11,"O=C(c1ccccn1)c1sc(-c2cccc(F)c2)nc1O [Example 22, [2-(3-fluorophenyl)-4-hydroxy-1,3-thiazol-5-yl](pyridin-2-yl)methanone]",55
12,"O=C(c1cccnc1)c1sc(-c2cccc(F)c2)nc1O [Example 23, [2-(3-fluorophenyl)-4-hydroxy-1,3-thiazol-5-yl](pyridin-3-yl)methanone]",51

# Biological target: T1, human TRPM8 (Homo sapiens, UniProt Q7Z2W7)
# T1 sequence (Q7Z2W7 whole entry): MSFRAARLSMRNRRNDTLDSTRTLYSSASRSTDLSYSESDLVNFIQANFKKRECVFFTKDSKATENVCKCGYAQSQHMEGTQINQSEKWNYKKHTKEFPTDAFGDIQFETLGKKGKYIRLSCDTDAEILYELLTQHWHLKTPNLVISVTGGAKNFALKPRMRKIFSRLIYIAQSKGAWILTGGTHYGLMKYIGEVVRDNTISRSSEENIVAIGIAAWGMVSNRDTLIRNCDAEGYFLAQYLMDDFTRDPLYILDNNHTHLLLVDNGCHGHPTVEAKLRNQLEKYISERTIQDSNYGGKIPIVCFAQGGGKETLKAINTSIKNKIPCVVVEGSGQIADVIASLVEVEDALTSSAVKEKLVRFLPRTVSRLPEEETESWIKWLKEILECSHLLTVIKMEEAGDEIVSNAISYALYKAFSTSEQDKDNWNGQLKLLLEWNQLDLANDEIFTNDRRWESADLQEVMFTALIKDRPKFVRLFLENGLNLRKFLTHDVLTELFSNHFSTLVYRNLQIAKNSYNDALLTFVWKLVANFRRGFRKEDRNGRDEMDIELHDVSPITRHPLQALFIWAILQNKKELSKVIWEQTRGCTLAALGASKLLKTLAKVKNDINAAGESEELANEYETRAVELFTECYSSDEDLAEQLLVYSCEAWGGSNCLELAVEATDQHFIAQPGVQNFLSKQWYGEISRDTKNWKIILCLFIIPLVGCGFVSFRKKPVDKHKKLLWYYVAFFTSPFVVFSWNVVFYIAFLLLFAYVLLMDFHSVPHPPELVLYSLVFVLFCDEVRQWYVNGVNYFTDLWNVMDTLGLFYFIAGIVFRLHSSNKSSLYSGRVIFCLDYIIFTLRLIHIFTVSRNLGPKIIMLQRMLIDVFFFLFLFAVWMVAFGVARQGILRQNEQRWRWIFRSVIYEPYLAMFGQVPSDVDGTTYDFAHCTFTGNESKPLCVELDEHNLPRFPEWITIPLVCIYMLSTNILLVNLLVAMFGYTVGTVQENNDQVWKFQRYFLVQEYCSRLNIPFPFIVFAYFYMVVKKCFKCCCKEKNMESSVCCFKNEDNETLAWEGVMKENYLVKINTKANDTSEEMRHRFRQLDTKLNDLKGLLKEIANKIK
# Test: In vitro TRPM8 assay: intracellular calcium levels, Ca2+ sensitive fluorescent dye (FLIPR), agonist Icilin or Cooling Agent 10
# Type: cell-based
# Set-up: expressed in transfected cells
# Conditions: HEK-293 cells stably expressing human TRPM8; agonist Cooling Agent 10 at EC80; read-out: Ca2+ (IC50 μM) Cool 10
# Description: The TRPM8 antagonistic activity of all 26 compounds was determined by measuring changes in intracellular calcium levels using a Ca^+2 sensitive fluorescent dye. The experiments were performed using HEK-293 cells stably expressing the human TRPM8. Cells were seeded 10000 cells/well in 384 plates coated by Poly-D-Lysine MATRIX black/clear bottom (Thermo Scientific, Waltham, Mass. USA) in complete medium and grown overnight at 37° C., 5% CO2. 24 h after seeding, cell culture media was removed, cells were washed with Tyrode's assay buffer and then loaded with the fluorescent Ca^+2 indicator Fluo-4 NW dye (Molecular Probes, Life Technologies, Paisley, UK) supplemented with water-soluble Probenecid (Molecular Probes). Dye loaded cell plates were incubated for 1 h at room temperature. The compounds or vehicle were added and the kinetic response was monitored by a fluorimetric imaging plate ([…]; Molecular Devices, Sunnyvale, Calif., USA) over a period of five minutes (300 seconds). A second injection 5 minutes later of the reference agonist Cooling Agent 10 or Icilin at EC80 concentration was performed. The signal of the emitted fluorescence was recorded during additional three minutes. Data were analyzed by Spotfire DecisionSite version 9.1.1. The bioactivity exerted by the compounds or vehicle was expressed as a percent inhibition and IC50 values were then calculated.
row,SMILES,IC50 [µM]
1,"O=C(c1sc(-c2cccc(F)c2)nc1O)N1CCOCC1 [Example 12, [2-(3-fluorophenyl)-4-hydroxy-1,3-thiazol-5-yl](morpholin-4-yl)methanone]",0.963
2,"O=C(c1sc(-c2ccccc2O)nc1O)N1CCOCC1 [Example 13, [4-hydroxy-2-(2-hydroxyphenyl)-1,3-thiazol-5-yl](morpholin-4-yl)methanone]",1.12
3,"O=C(c1sc(-c2cccc(F)c2)nc1O)N1CCCCC1 [Example 14, [2-(3-fluorophenyl)-4-hydroxy-1,3-thiazol-5-yl](piperidin-1-yl)methanone]",1.51
4,"O=C(c1sc(-c2cccc(F)c2)nc1O)C1CCCN1 (stereo not drawn) [Example 15, [2-(3-fluorophenyl)-4-hydroxy-1,3-thiazol-5-yl](pyrrolidin-2-yl)methanone]",1.56
5,"CN1CCCC1C(=O)c1sc(-c2cccc(F)c2)nc1O (stereo not drawn) [Example 16, [2-(3-fluorophenyl)-4-hydroxy-1,3-thiazol-5-yl](1-methylpyrrolidin-2-yl)methanone]",1.34
6,"O=C(c1ccc[nH]1)c1sc(-c2cccc(F)c2)nc1O [Example 17, [2-(3-fluorophenyl)-4-hydroxy-1,3-thiazol-5-yl](1H-pyrrol-2-yl)methanone]",0.482
7,"Cn1cccc1C(=O)c1sc(-c2cccc(F)c2)nc1O [Example 18, [2-(3-fluorophenyl)-4-hydroxy-1,3-thiazol-5-yl](1-methyl-1H-pyrrol-2-yl)methanone]",1.08
8,"O=C(c1ccco1)c1sc(-c2cccc(F)c2)nc1O [Example 19, [2-(3-fluorophenyl)-4-hydroxy-1,3-thiazol-5-yl](furan-2-yl)methanone]",1.17
9,"O=C(c1cccs1)c1sc(-c2cccc(F)c2)nc1O [Example 20, [2-(3-fluorophenyl)-4-hydroxy-1,3-thiazol-5-yl](thiophen-2-yl)methanone]",0.96
10,"O=C(c1sc(-c2cccc(F)c2)nc1O)n1cccc1 [Example 21, [2-(3-fluorophenyl)-4-hydroxy-1,3-thiazol-5-yl](1H-pyrrol-1-yl)methanone]",0.651
11,"O=C(c1ccccn1)c1sc(-c2cccc(F)c2)nc1O [Example 22, [2-(3-fluorophenyl)-4-hydroxy-1,3-thiazol-5-yl](pyridin-2-yl)methanone]",0.523
12,"O=C(c1cccnc1)c1sc(-c2cccc(F)c2)nc1O [Example 23, [2-(3-fluorophenyl)-4-hydroxy-1,3-thiazol-5-yl](pyridin-3-yl)methanone]",0.621

# Same assay, conditions: HEK-293 cells stably expressing human TRPM8; agonist Icilin at EC80; read-out: Ca2+ (IC50 μM) Icilin
row,SMILES,IC50 [µM]
1,"O=C(c1sc(-c2cccc(F)c2)nc1O)N1CCOCC1 [Example 12, [2-(3-fluorophenyl)-4-hydroxy-1,3-thiazol-5-yl](morpholin-4-yl)methanone]",1.21
2,"O=C(c1sc(-c2ccccc2O)nc1O)N1CCOCC1 [Example 13, [4-hydroxy-2-(2-hydroxyphenyl)-1,3-thiazol-5-yl](morpholin-4-yl)methanone]",1.22
3,"O=C(c1sc(-c2cccc(F)c2)nc1O)N1CCCCC1 [Example 14, [2-(3-fluorophenyl)-4-hydroxy-1,3-thiazol-5-yl](piperidin-1-yl)methanone]",1.47
4,"O=C(c1sc(-c2cccc(F)c2)nc1O)C1CCCN1 (stereo not drawn) [Example 15, [2-(3-fluorophenyl)-4-hydroxy-1,3-thiazol-5-yl](pyrrolidin-2-yl)methanone]",1.23
5,"CN1CCCC1C(=O)c1sc(-c2cccc(F)c2)nc1O (stereo not drawn) [Example 16, [2-(3-fluorophenyl)-4-hydroxy-1,3-thiazol-5-yl](1-methylpyrrolidin-2-yl)methanone]",1.36
6,"O=C(c1ccc[nH]1)c1sc(-c2cccc(F)c2)nc1O [Example 17, [2-(3-fluorophenyl)-4-hydroxy-1,3-thiazol-5-yl](1H-pyrrol-2-yl)methanone]",0.564
7,"Cn1cccc1C(=O)c1sc(-c2cccc(F)c2)nc1O [Example 18, [2-(3-fluorophenyl)-4-hydroxy-1,3-thiazol-5-yl](1-methyl-1H-pyrrol-2-yl)methanone]",1.09
8,"O=C(c1ccco1)c1sc(-c2cccc(F)c2)nc1O [Example 19, [2-(3-fluorophenyl)-4-hydroxy-1,3-thiazol-5-yl](furan-2-yl)methanone]",1.15
9,"O=C(c1cccs1)c1sc(-c2cccc(F)c2)nc1O [Example 20, [2-(3-fluorophenyl)-4-hydroxy-1,3-thiazol-5-yl](thiophen-2-yl)methanone]",1.11
10,"O=C(c1sc(-c2cccc(F)c2)nc1O)n1cccc1 [Example 21, [2-(3-fluorophenyl)-4-hydroxy-1,3-thiazol-5-yl](1H-pyrrol-1-yl)methanone]",0.745
11,"O=C(c1ccccn1)c1sc(-c2cccc(F)c2)nc1O [Example 22, [2-(3-fluorophenyl)-4-hydroxy-1,3-thiazol-5-yl](pyridin-2-yl)methanone]",0.54
12,"O=C(c1cccnc1)c1sc(-c2cccc(F)c2)nc1O [Example 23, [2-(3-fluorophenyl)-4-hydroxy-1,3-thiazol-5-yl](pyridin-3-yl)methanone]",0.695

# Biological target: T1, human TRPM8
# Test: In vitro cold stimulation assay
# Conditions: not given
row,SMILES,IC50 [nM]
1,"O=C(c1sc(-c2cccc(F)c2)nc1O)N1CCOCC1 [Example 12, [2-(3-fluorophenyl)-4-hydroxy-1,3-thiazol-5-yl](morpholin-4-yl)methanone]",853
2,"O=C(c1sc(-c2ccccc2O)nc1O)N1CCOCC1 [Example 13, [4-hydroxy-2-(2-hydroxyphenyl)-1,3-thiazol-5-yl](morpholin-4-yl)methanone]",752
3,"O=C(c1sc(-c2cccc(F)c2)nc1O)N1CCCCC1 [Example 14, [2-(3-fluorophenyl)-4-hydroxy-1,3-thiazol-5-yl](piperidin-1-yl)methanone]",985
4,"O=C(c1sc(-c2cccc(F)c2)nc1O)C1CCCN1 (stereo not drawn) [Example 15, [2-(3-fluorophenyl)-4-hydroxy-1,3-thiazol-5-yl](pyrrolidin-2-yl)methanone]",1310
5,"CN1CCCC1C(=O)c1sc(-c2cccc(F)c2)nc1O (stereo not drawn) [Example 16, [2-(3-fluorophenyl)-4-hydroxy-1,3-thiazol-5-yl](1-methylpyrrolidin-2-yl)methanone]",1010
6,"O=C(c1ccc[nH]1)c1sc(-c2cccc(F)c2)nc1O [Example 17, [2-(3-fluorophenyl)-4-hydroxy-1,3-thiazol-5-yl](1H-pyrrol-2-yl)methanone]",124
7,"Cn1cccc1C(=O)c1sc(-c2cccc(F)c2)nc1O [Example 18, [2-(3-fluorophenyl)-4-hydroxy-1,3-thiazol-5-yl](1-methyl-1H-pyrrol-2-yl)methanone]",1450
8,"O=C(c1ccco1)c1sc(-c2cccc(F)c2)nc1O [Example 19, [2-(3-fluorophenyl)-4-hydroxy-1,3-thiazol-5-yl](furan-2-yl)methanone]",1780
9,"O=C(c1cccs1)c1sc(-c2cccc(F)c2)nc1O [Example 20, [2-(3-fluorophenyl)-4-hydroxy-1,3-thiazol-5-yl](thiophen-2-yl)methanone]",1380
10,"O=C(c1sc(-c2cccc(F)c2)nc1O)n1cccc1 [Example 21, [2-(3-fluorophenyl)-4-hydroxy-1,3-thiazol-5-yl](1H-pyrrol-1-yl)methanone]",657
11,"O=C(c1ccccn1)c1sc(-c2cccc(F)c2)nc1O [Example 22, [2-(3-fluorophenyl)-4-hydroxy-1,3-thiazol-5-yl](pyridin-2-yl)methanone]",478
12,"O=C(c1cccnc1)c1sc(-c2cccc(F)c2)nc1O [Example 23, [2-(3-fluorophenyl)-4-hydroxy-1,3-thiazol-5-yl](pyridin-3-yl)methanone]",578
